Source: ChEMBL document CHEMBL4732049, “Anti-tuberculosis activity and its structure-activity relationship (SAR) studies of oxadiazole derivatives: A key review” (Eur J Med Chem, 2021)
Values after ≈ are worked out from the molar mass of the structure shown.

Legend:
[1] = test system: Mycobacterium tuberculosis; assay: Antimycobacterial activity against Mycobacterium tuberculosis H37Rv incubated for 5 days by two-fold serial dilution method; assay type: functional; conditions: 120 h, time 5 day
[2] = test system: Mycobacterium tuberculosis; assay: Antimycobacterial activity against Mycobacterium tuberculosis H37Rv ATCC 27294 incubated for 5 days by microplate alamar blue assay; assay type: functional; conditions: H37Rv ATCC 27294, 120 h, time 5 day
[3] = test system: Mycobacterium tuberculosis; assay: Antimycobacterial activity against Mycobacterium tuberculosis H37Rv; assay type: functional
[4] = test system: Mycobacterium tuberculosis; assay: Bactericidal activity against Mycobacterium tuberculosis H37Rv at 8 ug/ml measured within 7 days; assay type: functional; conditions: dose 8 µg/ml; time day <=7
[5] = test system: Mycobacterium tuberculosis; assay: Antimycobacterial activity against Mycobacterium tuberculosis H37Rv incubated for 7 days by microplate alamar blue assay; assay type: functional; conditions: 168 h, time 7 day
CHO-K1 = assay: Cytotoxicity against CHO-K1 cells incubated for 24 hrs by MTT assay; assay type: cell-based; conditions: Cricetulus griseus, CHO-K1, 24 h
[6] = Selectivity index, ratio of IC50 for CHO-K1 cells to MIC for Mycobacterium tuberculosis H37Rv; assay type: toxicity; conditions: hamster
[7] = test system: Mycobacterium tuberculosis; assay: Antimycobacterial activity against Mycobacterium tuberculosis H37Rv incubated for 5 days by microplate alamar blue assay; assay type: functional; conditions: 120 h, time 5 day
[8] = test system: Mycobacterium tuberculosis; assay: Antimycobacterial activity against Mycobacterium tuberculosis H37Rv assessed as percentage inhibition at 250 ug/ml measured after 2 to 4 weeks by Lowensteine-Jensen method relative to control; assay type: functional; conditions: time 2-4 weeks
[9] = Toxicity in brine shrimp nauplii assessed as induction of lethality incubated for 24 hrs by counting method; conditions: artemia salina
[10] = test system: Mycobacterium tuberculosis; assay: Antimycobacterial activity against Mycobacterium tuberculosis H37Ra ATCC 25177 by two fold dilution technique; assay type: functional
[11] = test system: Mycobacterium tuberculosis; assay: Antimycobacterial activity against Mycobacterium tuberculosis H37Ra ATCC 25177; assay type: functional
[12] = test system: Mycobacterium tuberculosis; assay: Antimycobacterial activity against Mycobacterium tuberculosis H37Rv ATCC 27294 incubated for 6 days by resazurin microtiter assay; assay type: functional; conditions: H37Rv ATCC 27294, 144 h, time 6 day, read-out: MIC100
[13] = test system: Mycobacterium tuberculosis; assay: Antimycobacterial activity against Mycobacterium tuberculosis H37Ra incubated for 6 days by resazurin microtiter assay; assay type: functional; conditions: 144 h, time 6 day
[14] = test system: Mycobacterium tuberculosis; assay: Antimycobacterial activity against Mycobacterium tuberculosis 209 incubated for 6 days by resazurin microtiter assay; assay type: functional; conditions: Mycobacterium tuberculosis, 209, 144 h; time 6 day; read-out: MIC100
[15] = test system: Mycobacterium tuberculosis; assay: Antimycobacterial activity against Mycobacterium tuberculosis H37Rv ATCC 27294 by agar dilution method; assay type: functional
Mycolicibacterium phlei = assay: Antimycobacterial activity against Mycobacterium phlei incubated for 5 days by microplate alamar blue assay; assay type: functional; conditions: 120 h, time 5 day
[16] = test system: Mycobacterium tuberculosis; assay: Antimycobacterial activity against Mycobacterium tuberculosis H37Rv ATCC 27294; assay type: functional
[17] = test system: Mycolicibacterium smegmatis; assay: Antimycobacterial activity against Mycobacterium smegmatis ATCC607 incubated for 16 to 24 hrs by microdilution liquid method; assay type: functional; conditions: time 16-24 hrs
[18] = test system: Mycobacterium tuberculosis; assay: Antimycobacterial activity against Mycobacterium tuberculosis; assay type: functional, organism-based

With `c1csc(-c2nnc(Cc3cccc4ccccc34)o2)c1` the MIC [1] was 0.4 µM (≈ 0.117 µg/mL).
`CN1CCN(Cc2nnc(-c3ccccc3)o2)CC1` gave an MIC [2] of 1.6 µg/mL (≈ 6.19 µM).
`O=C(Nc1nnc(-c2ccc(F)cc2)o1)c1ccc(Cl)cc1` gave an MIC [3] of 1.6 µg/mL (≈ 5.04 µM) and an Activity [4] of over 90%.
In the case of `Oc1ccc(-c2nnc(S)o2)cc1`, the MIC [5] is reported as 0.6 µg/mL (≈ 3.09 µM), the IC50 (CHO-K1) is reported as 23.8 µg/mL (≈ 123 µM) and the selectivity ratio [6] is reported as 39.
In the case of `Fc1ccc(-c2nnc(-c3n[nH]cc3-c3ccc(Cl)cc3)o2)cc1`, the MIC [2] is reported as 25 µg/mL (≈ 73.4 µM).
Compound `N#Cc1ccc(-c2nnc(-c3n[nH]cc3-c3ccc(Cl)cc3)o2)cc1` has an MIC [2] of 25 µg/mL (≈ 71.9 µM).
`Cn1c(-c2cccc(Cl)c2Cl)nc2cc(-c3nc(-c4ccc(Cl)cc4)no3)ccc21` showed an MIC [7] of 1.6 µg/mL (≈ 3.51 µM).
Compound `Cn1c(-c2cccc(Cl)c2Cl)nc2cc(-c3nc(-c4ccccc4Cl)no3)ccc21` has an MIC [7] of 1.6 µg/mL (≈ 3.51 µM).
For `Cn1c(-c2cccc(Cl)c2F)nc2cc(-c3nc(-c4ccc(Cl)cc4)no3)ccc21`, the MIC [7] was 1.6 µg/mL (≈ 3.64 µM).
For `Cc1ccc2nc(Cl)c(CN(c3ccccc3)c3nnc(-c4cccnc4)o3)cc2c1`, the inhibition at 250 µg/mL [8] was 96% and the LC50 at 24 h [9] was 26 µM.
For `Clc1ccc2nc(Cl)c(CN(c3ccccc3)c3nnc(-c4cccnc4)o3)cc2c1`, the inhibition at 250 µg/mL [8] was 96% and the LC50 at 24 h [9] was 26 µM.
For `Cc1nn(-c2ccccc2)c(Oc2cccc(C(F)(F)F)c2)c1-c1nnc(-c2ccc(Br)cc2)o1`, the inhibition at 250 µg/mL [8] was 91%.
With `Cc1ccc(-c2nnc(-c3c(C)nn(-c4ccccc4)c3Oc3cccc(F)c3)o2)cc1` the inhibition at 250 µg/mL [8] was over 90%.
For `Cc1ccc(-c2nnc(-c3c(C)nn(-c4ccccc4)c3Oc3ccc(F)cc3)o2)cc1`, the inhibition at 250 µg/mL [8] was over 90%.
Compound `Cc1nn(-c2ccccc2)c(Oc2ccc(F)cc2)c1-c1nnc(-c2ccc(Br)cc2)o1` has an inhibition at 250 µg/mL [8] of 91%.
`CC1(C)Cc2c(C#CCO)c(NC(=O)C(C)(C)C)cc(-c3nnc(-c4ccc(C(F)(F)F)cc4)o3)c2O1` gave an MIC [10] of 2 µg/mL (≈ 3.89 µM) and an IC90 [11] of 5.7 µM.
`Clc1nc2ccccc2cc1CN(c1ccccc1)c1nnc(-c2cccnc2)o1` gave an inhibition at 250 µg/mL [8] of 96% and an LC50 at 24 h [9] of 26 µM.
In the case of `O=C(Nc1nnc(-c2ccc(Cl)cc2)o1)c1ccc([N+](=O)[O-])s1`, the MIC [12] is reported as 7.8 µg/mL (≈ 22.2 µM), the MIC ([13]; read-out: MIC100) is reported as 7.8 µg/mL (≈ 22.2 µM) and the MIC [14] is reported as 7.8 µg/mL (≈ 22.2 µM).
In the case of `CN1CCN(Cc2nnc(-c3ccc(Cl)cc3)o2)CC1`, the MIC [2] is reported as 3.12 µg/mL (≈ 10.7 µM).
For `COc1ccc(-c2cc(-c3nnc(C)o3)nn2-c2ccc(NC(=O)c3ccc(F)cc3)cc2)cc1`, the MIC [15] was over 50 µg/mL.
For `O=C(Nc1nnc(-c2ccc(Cl)cc2)o1)c1ccc([N+](=O)[O-])[nH]1`, the MIC [12] was 31.2 µg/mL (≈ 93.6 µM), the MIC ([13]; read-out: MIC) was 7.8 µg/mL (≈ 23.4 µM) and the MIC [14] was 7.8 µg/mL (≈ 23.4 µM).
For `Cc1nnc(-c2cc(-c3ccc(Cl)cc3)n(-c3ccc(NC(=O)c4ccccc4Cl)cc3)n2)o1`, the MIC [15] was 1.56 µg/mL (≈ 3.18 µM).
For `O=C(Nc1nnc(-c2ccc(Cl)cc2)o1)c1ccc([N+](=O)[O-])o1`, the MIC [12] was 7.8 µg/mL (≈ 23.3 µM), the MIC ([13]; read-out: MIC100) was 7.8 µg/mL (≈ 23.3 µM) and the MIC [14] was 7.8 µg/mL (≈ 23.3 µM).
Work on `O=c1[nH]nc(Cc2coc3cc(Cl)ccc23)o1` yielded an MIC [7] of 3.12 µg/mL (≈ 12.5 µM) and an MIC (Mycolicibacterium phlei) of 3.12 µg/mL (≈ 12.5 µM).
`O=C(Nc1nnc(-c2ccc(Cl)cc2)o1)c1cccc([N+](=O)[O-])c1` showed an MIC [12] of 7.8 µg/mL (≈ 22.6 µM), an MIC ([13]; read-out: MIC100) of 7.8 µg/mL (≈ 22.6 µM) and an MIC [14] of 7.8 µg/mL (≈ 22.6 µM).
With `Cc1nn(-c2ccccc2)c(Oc2cccc(F)c2)c1-c1nnc(-c2ccccc2)o1` the inhibition at 250 µg/mL [8] was 91%.
`O=C(Nc1nnc(-c2ccc(Cl)cc2)o1)c1ccccc1` showed an MIC [12] of 7.8 µg/mL (≈ 26 µM) and an MIC [14] of 31.2 µg/mL (≈ 104 µM).
For `CO[C@H]1O[C@H](Cc2nnc(C)o2)[C@H](OCc2ccccc2)[C@H](OCc2ccccc2)[C@H]1OCc1ccccc1`, the MIC [16] was 60 µM (≈ 31.8 µg/mL).
Compound `COc1ccc(-c2cc(-c3nnc(C)o3)nn2-c2ccc(NC(=O)c3ccccc3)cc2)cc1` has an MIC [15] of over 50 µg/mL.
For `O=c1[nH]nc(Cc2coc3ccc(Cl)cc23)o1`, the MIC [7] was 3.12 µg/mL (≈ 12.5 µM) and the MIC (Mycolicibacterium phlei) was 3.12 µg/mL (≈ 12.5 µM).
`COc1ccc(-c2nnc(CN3CCN(C)CC3)o2)cc1` showed an MIC [2] of 3.12 µg/mL (≈ 10.8 µM).
Compound `O=c1[nH]nc(Cc2coc3cc(Br)ccc23)o1` has an MIC [7] of 1.56 µg/mL (≈ 5.29 µM) and an MIC (Mycolicibacterium phlei) of 1.56 µg/mL (≈ 5.29 µM).
In the case of `S=c1[nH]nc(CN2CCOCC2)o1`, the MIC [17] is reported as 7.8 µg/mL (≈ 38.8 µM).
With `Cc1cccc(Oc2c(-c3nnc(-c4ccc(F)cc4)o3)c(C)nn2-c2ccccc2)c1` the inhibition at 250 µg/mL [8] was 91%.
For `S=c1[nH]nc(CN2CCSCC2)o1`, the MIC [17] was 7.8 µg/mL (≈ 35.9 µM).
Work on `O=C(CCCC(F)(F)F)C1CCC(c2nc(-c3nccs3)no2)CC1` (stereo not given) yielded an IC50 [18] of 0.4 µM.
In the case of `CN1CCN(Cc2nnc(-c3ccc(O)cc3)o2)CC1`, the MIC [2] is reported as 3.12 µg/mL (≈ 11.4 µM).
With `Cc1nnc(-c2cc(-c3ccc(Cl)cc3)n(-c3ccc(NC(=O)c4ccc(Cl)cc4)cc3)n2)o1` the MIC [15] was 3.13 µg/mL (≈ 6.38 µM).
Compound `NC(=O)c1cnccn1` [PYRAZINAMIDE] has an MIC [2] of 3.12 µg/mL (≈ 25.3 µM), an MIC [7] of 3.12 µg/mL (≈ 25.4 µM) and an MIC (Mycolicibacterium phlei) of 3.12 µg/mL (≈ 25.4 µM).
`CO[C@H]1/C=C/O[C@@]2(C)Oc3c(C)c(O)c4c(O)c(c(/C=N/N5CCN(C)CC5)c(O)c4c3C2=O)NC(=O)/C(C)=C\C=C\[C@H](C)[C@H](O)[C@@H](C)[C@@H](O)[C@@H](C)[C@H](OC(C)=O)[C@@H]1C` [RIFAMPIN] showed an inhibition at 250 µg/mL [8] of 98% and an MIC [5] of 0.2 µg/mL (≈ 0.243 µM).
In the case of `CN[C@@H]1[C@H](O[C@H]2[C@H](O[C@H]3[C@H](O)[C@@H](O)[C@H](N=C(N)N)[C@@H](O)[C@@H]3N=C(N)N)O[C@@H](C)[C@]2(O)C=O)O[C@@H](CO)[C@H](O)[C@H]1O` [STREPTOMYCIN], the MIC [7] is reported as 6.25 µg/mL (≈ 10.7 µM), the MIC (Mycolicibacterium phlei) is reported as 6.25 µg/mL (≈ 10.7 µM) and the MIC [17] is reported as 4 µg/mL (≈ 6.88 µM).
